Reference: patent US20050209216A1, “Phenyl-and pyridyl-diazaheterocycles having a tnf-modulating activity” (priority 2002, published 2005)
Counter-ions that a name gives are not always drawn.

Row | SMILES | melting point [°C]
1 | FC(F)(F)c1ccc(N2CCN(CCc3ccc4cccnc4c3)CC2)nc1 (as salt: hydrochloride) [Example 12] | 108 to 110
2 | FC(F)(F)c1cccc(N2C3CCC2CN(CCc2ccc4ccncc4c2)C3)n1 (as salt: hydrochloride) (hydrate or solvate) | 158 to 160
3 | FC(F)(F)c1cccc(N2CCN(CCc3ccc4cccnc4c3)CC2)n1 (as salt: hydrochloride) [Example 11] | 228 to 230
4 | FC(F)(F)c1cccc(N2CC3CCC(C2)N3CCc2ccc3ccncc3c2)n1 (as salt: hydrochloride) (hydrate or solvate) | 258 to 260
5 | Clc1cccc(N2CCN(CCc3ccc4cccnc4c3)CC2)n1 (as salt: oxalate) [Example 10] | 170 to 172
6 | FC(F)(F)c1cccnc1N1CCN(CCc2ccc3cccnc3c2)CC1 (as salt: hydrochloride) [Example 13] | 163 to 164
7 | Clc1cccc(N2CC3CCC(C2)N3CCc2ccc3ccncc3c2)n1 | 141 to 142

Now from value to molecule:

Row | melting point [°C] | SMILES
8 | 151 to 153 | FC(F)(F)c1cccc(N2C3CCC2CN(CCc2ccc4ccncc4c2)C3)c1 (as salt: hydrochloride) (hydrate or solvate)
9 | 135 to 137 | FC(F)(F)c1cccc(N2CCCN(CCc3ccc4ccncc4c3)CC2)c1 (as salt: oxalate) [Example 4]
10 | 108 to 110 | Clc1cccc(N2CCN(CCc3ccc4ccncc4c3)CC2)n1 (as salt: hydrochloride) (hydrate or solvate) [Example 3]
11 | 97 to 99 | FC(F)(F)c1cccc(N2CC3CCC(C2)N3CCc2ccc3ccncc3c2)c1 (as salt: oxalate)
